Consider 30 molecules from PubChem BioAssay (NCI).

What all share (experiment): growth of human tumour cells (NCI), 48 h
Assay [1] has as its system MDA-MB-435.
Assay [2] concerns SNB-19 CNS.
Assay [3] relates to SK-OV-3 ovarian.
For assay [4], the system named is M14 melanoma.
Assay [5] deals with EKVX NSCLC.
Assay [6] concerns PC-3 prostate.
In assay [7] the test system is NCI-H460 lung.
Assay [8] concerns K-562 leukemia.
Assay [9] deals with RXF 393 renal.

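Grown in 96-well plates, cells were treated for 48 hours with each compound at five concentrations. Insufficient inhibition: endpoint recorded as highest concentration tested. The concentration for full growth arrest is given as TGI.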

With `COc1cc(C)cc2c1c(=O)c1ccccc1n2C`, the TGI in assay [1], in assay [2], in [3], in [4], in assay [5] and in assay [6] was greater than 100 µM throughout. Besides, the figures for the TGI in assay [7], in assay [8] and in assay [9] were greater than 100 µM, 39.4 µM and 73.8 µM, respectively.

As for `O=C(N/N=C/c1ccc([N+](=O)[O-])o1)c1ccc(C(=O)N/N=C/c2ccc([N+](=O)[O-])o2)cc1`, the TGI is 30.9 µM in assay [1]; greater than 100 µM in assay [2]; greater than 100 µM in [3]; greater than 100 µM in assay [4]; greater than 100 µM in [5]; greater than 100 µM in assay [6]. Further, the TGI in assay [8] and in assay [9] was greater than 100 µM each time.

In the case of `Cc1nc2c(nc1C)-c1c(c3c(n1C)C(=O)CCC3)C(=O)C2=O`, the TGI came out at 0.353 µM in assay [1]; 2.82 µM in assay [2]; 2.61 µM in assay [3]; 1.29 µM in assay [4]; 2.65 µM in [5]; 3.14 µM in [6]. For the same molecule, the TGI in assay [7] was 2.7 µM; in assay [8], greater than 100 µM; in assay [9], 0.474 µM.

As for `Cc1cc(N=Nc2c(O)ccc3ccccc23)ccc1N=Nc1cccc([N+](C)(C)C)c1`, the TGI in assay [1] is greater than 74.5 µM; in [2], 26 µM; in [3] it was greater than 75.3 µM; in [4] it was 59.3 µM; in assay [5], 62.1 µM; in assay [6], 35.1 µM. Also, the TGI is 30.9 µM in [7], greater than 90.7 µM in assay [8] and 48.7 µM in [9].

For `CCN(CC)CCNC(=O)c1ccc(I)cc1`, the TGI in assay [1], in assay [2], in assay [3], in [4], in [5] and in [6] was greater than 100 µM each time. Besides, the TGI in assay [7], in assay [8] and in [9] was greater than 100 µM throughout.

Turning to `COc1cc(C2SC(N)=Nc3c2c(C)nn3C(=O)c2ccccc2O)ccc1O` (configuration not stated), the TGI in [1], in [2], in [3], in [4], in [5] and in [6] was greater than 10 µM in each case. Besides, the TGI in assay [7] was greater than 10 µM; in assay [8], greater than 3.75 µM; in assay [9] it was greater than 10 µM.

Take `N#CC(=C1CCCCC1)c1nc2ccccc2o1`: the TGI was greater than 100 µM in [1]; greater than 100 µM in [2]; greater than 100 µM in [3]; greater than 100 µM in assay [4]; 89.4 µM in assay [5]; greater than 100 µM in assay [6]. The TGI in [7], in assay [8] and in [9] was greater than 100 µM in each case.

In the case of `[N-]=[N+]=Nc1c(C=O)c(=O)n(-c2ccccc2)c2ccccc12`, the TGI in assay [1] was 34.5 µM; in assay [2], greater than 100 µM; in assay [3] it was greater than 100 µM; in [4] it was 34.1 µM; in assay [6], 43.8 µM; in assay [7] it was greater than 100 µM. The TGI in assay [8] was determined as 21.5 µM; in assay [9], 27.2 µM.

For `CCCCSC1=N/C(=C\c2ccc(N(C)C)cc2)C(NN)=N1`, the TGI in assay [1], in [2], in [3], in [4], in assay [5] and in assay [6] was greater than 100 µM in each case. The TGI in [7], in assay [8] and in [9] was greater than 100 µM each time.

`CN(C)Cc1cc(C(C)(C)C)ccc1-c1ccc(C(C)(C)C)cc1CN(C)C`: the TGI in assay [1], in assay [2], in assay [3], in [4], in assay [5] and in assay [6] was greater than 100 µM each time. The TGI in [7], in assay [8] and in [9] was greater than 100 µM in each case.

As to `Cc1ccc(N=N/C(=N/NC(=O)c2cc(Cl)ccc2C(=O)c2ccccc2)c2ccc(N(CCC#N)CCC#N)cc2C)cc1`, the TGI was 82 µM in [1]; greater than 100 µM in assay [2]; 40 µM in assay [3]; 41 µM in assay [4]; 84.7 µM in [5]; 47.2 µM in assay [6]. The figures for the TGI in [7], in assay [8] and in assay [9] were 13.6 µM, greater than 100 µM and 7.24 µM, respectively.

For `CC(=O)Oc1cc2c(c3ncccc13)OC(C)(C)C2`, the TGI in assay [1] was 24 µM; in assay [3], greater than 100 µM; in [4], 27.5 µM; in assay [6], greater than 100 µM; in [7] it was 31.3 µM; in assay [8], 23.4 µM. In addition, the TGI in assay [9] stood at 26.8 µM.

As for `CCCCOC(=O)NC(Nc1cccc(C(F)(F)F)c1)(C(F)(F)F)C(F)(F)F`, the TGI in assay [1], in assay [2], in assay [4], in [5], in assay [6] and in assay [7] was greater than 100 µM each time. The TGI in assay [8] and in assay [9] was greater than 100 µM each time.

Take `CCCC(=O)O[C@H]1C=C2C[C@@]34SS[C@]5(CC6=C[C@H](OC(C)=O)[C@@H]7O[C@@H]7[C@H]6N5C3=O)C(=O)N4[C@@H]2[C@H]2O[C@H]21`: the TGI in [1] was 0.0241 µM; in assay [2], 1.43 µM; in [3] it was 3.21 µM; in assay [4] it was 0.0545 µM; in assay [5], 0.0294 µM; in [6], 0.0611 µM. Also, the TGI in assay [7] came out at 0.379 µM; in [8] it was 5.83 µM; in [9], 0.0713 µM.

Regarding `O=C(Nc1c(C(F)(F)F)cc(-c2ccccc2)[nH]c1=O)N1CCOCC1`, the TGI in assay [1], in assay [2], in [3], in assay [4], in assay [5] and in [6] was greater than 100 µM throughout. Further, the TGI in [7], in assay [8] and in [9] was greater than 100 µM throughout.

Consider `O=C1CC(=O)NC(=NN2C(=O)/C(=C/c3ccccc3)N=C2c2ccccc2)N1`, for which the TGI in assay [1], in [3], in assay [4], in assay [6], in [7] and in assay [8] was greater than 100 µM throughout. Also, in [9], the TGI is greater than 100 µM.

As to `c1ccc(P(CCP(c2ccccn2)c2ccccn2)c2ccccc2)cc1`, the TGI in [1] was greater than 100 µM; in [2], greater than 100 µM; in [3], greater than 100 µM; in assay [4] it was greater than 100 µM; in [5], 9 µM; in assay [6], 72.6 µM. The values for the TGI in [7], in [8] and in [9] were greater than 84.9 µM, greater than 100 µM and 98 µM, respectively.

`C[C@]12Cc3cnn(-c4ccc(F)cc4)c3NC1CC[C@@H]1C2CC[C@@]2(C)C1CC[C@@H]2O` (some centres not stated): the TGI worked out at 20.8 µM in assay [1]; 56.1 µM in assay [2]; 67.9 µM in [3]; 23.1 µM in [4]; 25.4 µM in [5]; 21.9 µM in [6]. Also, the TGI in assay [7] is 16.6 µM; in assay [8] it was 24 µM; in assay [9], 5.09 µM.

`Cc1cccc(CC(Cc2c(C)cccc2C(=O)O)C(=O)O)c1` (configuration not stated): the TGI in assay [1], in [2], in assay [3], in assay [4], in assay [5] and in [6] was greater than 100 µM each time. Also, the TGI in assay [7], in [8] and in [9] was greater than 100 µM in each case.

Consider `Nc1ncc(Cl)c(NCC2(CO)CC(CCc3ccccc3)C2)n1` (configuration not stated), for which the TGI in [1], in [2], in assay [3], in assay [4], in assay [5] and in assay [6] was greater than 100 µM throughout. Moreover, the TGI in assay [7], in [8] and in assay [9] was greater than 100 µM throughout.

Regarding `CC(C)(C)OC(=O)N(O)CCCn1cnc2c(N)ncnc21`, the TGI in assay [1], in assay [2], in assay [3], in assay [4], in assay [5] and in [6] was greater than 100 µM each time. The TGI in [7], in [8] and in assay [9] was greater than 100 µM each time.

Regarding `CC1(C)CC(=O)C2=C(C1)NC1=C(C(=O)CC(C)(C)C1)C2c1ccc([N+](=O)[O-])cc1`, the TGI in assay [1], in assay [2], in [3], in [4], in [5] and in [6] was greater than 100 µM throughout. For the same molecule, the TGI in assay [7], in assay [8] and in assay [9] was greater than 100 µM each time.

`CC=CCOc1cc(NC(=S)OC(C)C)ccc1Cl` (mixture of isomers): the TGI was found to be 49.9 µM in assay [1]; 56.6 µM in [2]; 45.8 µM in [3]; 63.3 µM in assay [4]; 36.6 µM in [5]; 34.3 µM in [6]. Also, the TGI in assay [7] came to 31.8 µM; in [9] it was 30.8 µM.

Consider `Cc1nn(C(=O)c2ccncc2)c2c1C(c1ccccc1)SC(N)=N2` (configuration not stated), for which the TGI in assay [1], in [2], in assay [3], in assay [4], in assay [5] and in assay [6] was greater than 10 µM throughout. Moreover, the TGI in assay [7], in assay [8] and in [9] was greater than 10 µM in each case.

Turning to `Cc1cc(S(=O)(=O)/N=C(\[N-]S(=O)(=O)c2ccc(Cl)cc2)[n+]2ccc(N(C)C)cc2)c(S)cc1Cl`, the TGI in assay [1], in [3], in assay [4], in assay [5], in assay [6] and in assay [7] was greater than 100 µM throughout. Further, the TGI in assay [8] and in assay [9] was greater than 100 µM in each case.

For `CCOC(=O)Cc1csc2[n+]1C(=O)/C(=C\c1cccc(Cl)c1Cl)S2`, the TGI is greater than 100 µM in assay [1]; 88 µM in assay [2]; 43.1 µM in assay [3]; 85.1 µM in [4]; 50.7 µM in assay [5]; 37.7 µM in assay [6]. The figures for the TGI in assay [7] and in [9] were 45.8 µM and 40.4 µM, respectively.

As for `O=C(/C=C1\C[C@H]2C=Nc3ccccc3C(=O)N2C1)NCCCCNC(=O)/C=C1\C[C@H]2C=Nc3ccccc3C(=O)N2C1`, the TGI in assay [1] was determined as 21 µM; in assay [2], 31.8 µM; in [3] it was 34.4 µM; in assay [4], 19.5 µM; in assay [5] it was 33.7 µM; in assay [6], 27.7 µM. In addition, the figures for the TGI in assay [7], in assay [8] and in assay [9] were 37.5 µM, greater than 33.5 µM and 19.2 µM, respectively.

`CCOP(=O)(C/C=C/Cn1nc(Br)c(=O)[nH]c1=O)OCC`: the TGI in assay [1], in [2], in assay [4], in [5], in assay [6] and in assay [7] was greater than 100 µM throughout. Besides, the TGI in [8] and in assay [9] was greater than 100 µM each time.

Turning to `CC(=O)NNc1nc(C)c(C(/C=C/c2ccc([N+](=O)[O-])cc2)=N/NC(N)=S)s1`, the TGI in [1], in assay [2], in [3], in assay [4], in [5] and in assay [6] was greater than 100 µM in each case. Further, the TGI in assay [7] and in assay [9] was greater than 100 µM in each case.

As for `O=C1N2CCc3c([nH]c4ccccc34)C23CC2CCCCC12S3` (configuration not stated), the TGI in [1], in assay [2], in [3], in [4], in assay [5] and in assay [6] was greater than 100 µM each time. The TGI in assay [8] and in [9] was greater than 100 µM each time.
